# According to patent US20250064799A1, “ORAL FORMULATIONS OF LEVOSIMENDAN FOR TREATING PULMONARY HYPERTENSION WITH HEART FAILURE WITH PRESERVED EJECTION FRACTION” (Tenax Therapeutics, Inc., priority 2021, published 2025):
# Values joined by “and” are separate entries in the source; they are usually repeats but may differ in a detail not shown here. Identical values can stand only once. “Also recorded” adds a separate entry of the source.
# Assays:
# patients with PH-HFpEF [1] = experiment: Six-minute walk test (6MWT/6MWD), I.V. to oral levosimendan transition study (TNX-LVO-05 open label extension of HELP); format: in vivo, human
# Text: The initial HELP Study is described in PCT International Application Publication No. WO 2021/126884 and Burkhoff, et al. (2021) “Levosimendan improves hemodynamics and exercise tolerance in PH-HFpEF: results of the randomized placebo-controlled HELP trial,” the entire contents of each of which are incorporated by reference. […] Among the goals of the extension study was to determine the dose of oral levosimendan that could maintain the efficacy of the weekly I.V. infusions of levosimendan.
# Once that dose is determined, the study is identical with respect to the protocol. Since the I.V. formulation is weight based, and bypasses issues of bioavailability that may be affected by drug absorption, a dose escalation strategy is being adopted, guided by the individual patient response and any adverse events that may occur. Thus, the measurement of a six-minute walk test and patient questionnaire before and after the transition was to ensure that the patient continues to benefit. In addition, the monitoring of the patients' blood pressure and heart rate each day was to ensure that the oral dose remains safe.
# (§1) The following considerations justified amending the TNX-LVO-05 study protocol: • 1. The amended TNX-LVO-05 protocol included the same patients enrolled in the original study. This was not a new study of the patients currently enrolled. This was open label, with no blinding of patients or physicians, and no control group. • 2. The scope and purpose of the study was unchanged, with the exception that it offered the further extension of treatment allowed by the transition to oral therapy (See item #4). • 3. The amendment clearly delineated a stepwise and thoughtful titration of patients from their intravenous to oral levosimendan to ensure the safe and effective transition of their levosimendan regimen. • a. Patients were started on 1 mg daily, representing a dose generally less than half their total weekly weight-based dose regimen. • b. Patients were titrated based on tolerance to the daily levosimendan paying attention to their symptoms of PH-HFpEF, and special attention to specific adverse events of interest, heart rate and blood pressure. A daily diary captured patient vitals and symptoms to aid their physician in titrating patients at two-week intervals. • c. Patient response also was evaluated by clinical measures to provide the physician with additional information on the patient's response. • d. While most patients were expected to receive 2-3 mg daily at the conclusion of the transition study, the dose escalation strategy was included to allow all patients to realize the same benefit as they did from the I.V. formulation. • e. To document the sustained efficacy of the oral formulation in these patients, patients had to undergo a six-minute walk test and patient questionnaire prior to and at the end of the transition study. • 4. The transition to oral levosimendan allowed for extension of the study from its initial two years to an additional three years. This offers these PH-HFpEF patients, with no other treatments available, to continue on a drug that they have responded to. • 5. The amendment required patients to sign a revised informed consent to ensure patients are completely informed concerning the transition amendment. Patients that preferred to continue with their weekly 24-hour I.V. regimen were allowed to continue through the initial two-year period of the study and then will be withdrawn.
# Methods: Patients with PH-HFpEF who were in the open label extension study of the HELP Trial for more than 18 months volunteered to enroll in this transition protocol. Patients were initiated with 1 mg/day of oral levosimendan 5-7 days after the last IV levosimendan infusion. The oral dose was increased every 2 weeks by 1 mg/day to a maximum of 4 mg/day over an 8 week period. The highest daily dose was determined by the investigator based on clinical assessments of symptoms and side effects. […]
# patients with PH-HFpEF [2] = experiment: Adverse events, tolerability and final dose, I.V. to oral levosimendan transition study; format: in vivo, human; settings: for SAEs attributed/related to study drug: 6-8 week transition
# Text: as §1
# Methods: Patients with PH-HFpEF who were in the open label extension study of the HELP Trial for more than 18 months volunteered to enroll in this transition protocol. Patients were initiated with 1 mg/day of oral levosimendan 5-7 days after the last IV levosimendan infusion. The oral dose was increased every 2 weeks by 1 mg/day to a maximum of 4 mg/day over an 8 week period. The highest daily dose was determined by the investigator based on clinical assessments of symptoms and side effects. The primary safety endpoints were change in resting heart rate and blood pressure from baseline to final study visit and all other adverse events. Secondary efficacy endpoints included change in six-minute walk distance (6MWD), serum brain natriuretic peptide (BNP) or NT-proBNP levels, and quality of life as assessed by Kansas City Cardiomyopathy Questionnaire clinical summary score (KCCQ-CS) and overall summary score (KCCQ-OS) from baseline to final study visit. All comparisons were the baseline and at week 6-8 measurements at the highest daily dose of levosimendan. […]
# [3] = test system: Patient 019-002 with PH-HFpEF; experiment: HELP Study 24-hour open label lead-in infusion, rest and exercise right heart catheterization, Patient 019-002; format: in vivo, human
# Procedure: FIG. 3: Pulmonary Capillary Wedge Pressure (PCWP) of Patient […] of HELP Study.
# During the HELP Study, as described in PCT International Application Publication No. WO 2021/126884, the entire contents of which are incorporated by reference, Patient 019-002 was administered empagliflozin shortly after beginning levosimendan therapy.
# Specifically, Patient 019-002 had established PH-HFpEF and was initially enrolled into the HELP Trial. The diagnosis of PH-HFpEF was confirmed by rest and exercise right heart catheterization. […] The PCWP of 35 mmHg at rest increased with exercise to 55 mmHg at baseline. […] Thus, levosimendan produced a 40% fall in resting PCWP and a 33% fall in exercise PCWP. In addition, at baseline the CVP was 18 mmHg and increased to 30 mmHg with exercise. Following the 24 hours of i.v. levosimendan the CVP fell to 12 mmHg at rest and to 21 mmHg with exercise. Thus, levosimendan produced a 33% fall in resting CVP, and a 30% fall in CVP with exercise. Accordingly, the response of Patient 019-002 to levosimendan treatment was typical of other patients in the study in terms of improvements to their hemodynamic profile (FIG. 3).
# [4] = test system: phosphodiesterase-3 (PDE3); settings: in vitro; cited from earlier work
# [5] = in vivo; cited from earlier work
# [6] = individual patients transitioned from weekly I.V. to oral levosimendan
# [7] = 24 hours of i.v. levosimendan vs baseline
smiles,measurement,setting,value
C[C@@H]1CC(=O)NN=C1c1ccc(NN=C(C#N)C#N)cc1 [levosimendan],6MW Change (BL vs Week 6 only),patients with PH-HFpEF [1]; [6],−137 and 78 and −27 and 118 and −10 and −4 and 5 and −9 and −8 and 9 and −17 and 40 and 30 (2×) and 15 and −1
same,6MW Change (Baseline vs Week 6/8),patients with PH-HFpEF [1]; [6],−15 and 78 and −27 and −10 and −31 and −4 and 24 and −23 and −112 and 9 and −17 and 30 (3×) and −1
same,"6MWD Change from baseline to Week 6 - Oral, Maximum",patients with PH-HFpEF [1]; n=16,118
same,"6MWD Change from baseline to Week 6 - Oral, Median",patients with PH-HFpEF [1]; n=16,2.0
same,"6MWD Change from baseline to Week 6 - Oral, Minimum",patients with PH-HFpEF [1]; n=16,−137
same,"6MWD Week 6 - Oral, Maximum","patients with PH-HFpEF [1]; n=16, oral levosimendan",550 m
same,"6MWD Week 6 - Oral, Mean","patients with PH-HFpEF [1]; n=16, oral levosimendan",302.0
same,"6MWD Week 6 - Oral, Median","patients with PH-HFpEF [1]; n=16, oral levosimendan",292.0
same,"6MWD Week 6 - Oral, Minimum","patients with PH-HFpEF [1]; n=16, oral levosimendan",91
same,mean change in 6MWD,"patients with PH-HFpEF [1]; n=17, baseline to final study visit, oral levosimendan",13.1 (SD±39.5) meters
same,improvement in six minute walk distance,patients with PH-HFpEF [1]; oral levosimendan compared to weekly I.V. infusion,32%
same,tolerability of transition to oral levosimendan,"patients with PH-HFpEF [2]; 6-8-week period, after >18 months of IV levosimendan",well tolerated without safety concerns
same,other adverse events,"patients with PH-HFpEF [2]; 18 patients, oral levosimendan",No other adverse events
same,serious adverse event not related to study drug,"patients with PH-HFpEF [2]; 18 patients, oral levosimendan, listed as study drug",One patient experienced a serious adverse event (SAE) unrelated to study drug; also recorded: One patient had a serious adverse event not related to the study drug
same,SAEs attributed/related to study drug,patients with PH-HFpEF [2]; oral levosimendan,no SAEs related
same,SAEs attributed/related to study drug,"patients with PH-HFpEF [2]; oral levosimendan, listed as study drug",no SAEs were reported
same,fall in CVP with exercise,[3]; [7],30%
same,fall in exercise PCWP,[3]; [7],33%
same,fall in resting CVP,[3]; [7],33%
same,fall in resting PCWP,[3]; [7],40%
same,CVP at rest,[3]; following 24 hours of i.v. levosimendan (baseline 18 mmHg),12 mmHg
same,CVP with exercise,[3]; following 24 hours of i.v. levosimendan (baseline 30 mmHg),21 mmHg
same,PCWP at rest,[3]; following 24 hours of i.v. levosimendan (baseline 35 mmHg),21 mmHg
same,PCWP with exercise,[3]; following 24 hours of i.v. levosimendan (baseline 55 mmHg),37 mmHg
same,pulmonary capillary wedge pressure (PCWP) after levosimendan administration (FIG. 3),[3]; single 24-hour open label lead-in infusion,decrease
same,PDE3/PDE4 inhibition ratio,[4],"10,000"
same,parent half-life,[5],approximately 1 hour
